From patent US20180055915A1, “COMPOSITIONS AND METHODS FOR TREATING PROSTATE CANCER” (UNIVERSITY OF ROCHESTER, priority 2016, published 2018)
Residues, ends and D or L forms follow the SMILES beside them. *: point of attachment. Cbz = O=C(OCc1ccccc1)*

What was measured:
[1] = system: wild type AR, ARv7, AR-F876L; conditions: cited from earlier work
EnzR1-C4-2 cells = assay: MTT cell proliferation assay, EnzR1-C4-2; assay type: cell-based
Description: (§1) Cells were seeded in 24-well plates (5×10^3 cells/500 μL media per well) and cultured for 0, 2, 4 and 6 days. Cells were harvested and cell numbers and absorbance were calculated and recorded after using yellow tetrazolium MTT (3-(4, 5-dimethylthiazolyl-2)-2,5-diphenyltetrazolium bromide agent.

Enz-S1-C4-2 cells = assay: Enz sensitivity after 2 months treatment (MTT proliferation); assay type: cell-based
Description: as §1

ARv7 mRNA = ARv7 mRNA expression (real-time PCR); assay type: cell-based
Description: (§2) Total RNAs were isolated using Trizol reagent (Invitrogen, Grand Island, N.Y.). 2 μg of total RNA was subjected to reverse transcription using Superscript III transcriptase (Invitrogen). Quantitative real-time PCR (qRT-PCR) was conducted using a Bio-Rad CFX96 system with SYBR green to determine the mRNA expression level of a gene of interest. Expression levels were normalized to the expression of GAPDH.

[2] = CRPC patients; cited from earlier work
ARv7 = molecular target: T1, ARv7 (Homo sapiens, UniProt P10275); assay: ARv7 protein expression/degradation in CRPC cells (western blot); assay type: cell-based
T1 construct: endogenous in cells; host or cells: EnzR1 C4-2, EnzR3 C4-2B, EnzR2 CWR22Rv1
T1 sequence (P10275 1-644 isoform P10275-3): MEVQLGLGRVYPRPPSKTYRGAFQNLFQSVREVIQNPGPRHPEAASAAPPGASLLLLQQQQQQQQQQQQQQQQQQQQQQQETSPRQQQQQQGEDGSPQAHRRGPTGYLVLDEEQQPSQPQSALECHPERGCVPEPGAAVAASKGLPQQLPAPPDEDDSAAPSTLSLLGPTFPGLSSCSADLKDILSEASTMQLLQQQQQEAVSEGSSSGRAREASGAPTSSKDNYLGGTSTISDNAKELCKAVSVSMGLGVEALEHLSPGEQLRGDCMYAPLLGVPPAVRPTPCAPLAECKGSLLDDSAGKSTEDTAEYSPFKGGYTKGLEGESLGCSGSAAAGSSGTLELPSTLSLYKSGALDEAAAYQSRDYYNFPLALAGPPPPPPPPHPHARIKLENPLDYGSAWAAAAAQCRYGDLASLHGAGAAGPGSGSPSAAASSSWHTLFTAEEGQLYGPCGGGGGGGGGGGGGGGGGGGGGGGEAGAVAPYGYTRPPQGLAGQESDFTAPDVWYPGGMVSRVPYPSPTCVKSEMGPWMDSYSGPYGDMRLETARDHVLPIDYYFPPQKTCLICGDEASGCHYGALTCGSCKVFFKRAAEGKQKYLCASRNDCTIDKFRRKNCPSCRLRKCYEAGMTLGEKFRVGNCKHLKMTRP
Description: (§3) To further dissect the mechanism(s) why Cis can decrease ARv7 (and AR) protein expression, first assayed was the Cis effects on ARv7 (and AR) protein stability with protein biosynthesis inhibitor, cycloheximide (CHX) and proteasome inhibitor MG132 in EnzR2-CWR22Rv1 cells.
(§4) For protein degradation, EnzR C4-2 cells were treated with 1 μg/mL Cisplatin for 6 hr. Cycloheximide or MG132 was added for another 4 hrs. For ubiquitination, human kidney epithelial HEK293T cells were grown in DMEM media with 10% FCS. Cells were plated at ˜60% confluency and pGFP-ubiquitin, pAR were transiently transfected into cells using CaCl2 reagent. After 48 hrs. of transfection, cells were treated with 1 μg/mL Cisplatin for 6 hrs. […], MG132, was added for another 4 hrs. Cell extracts were analyzed for AR degradation or AR-ubiquitination by using western blot.
(§5) Cells were lysed in lysis buffer and proteins (50 μg) were separated on 10% SDS/PAGE gel and then transferred onto PVDF membranes (Millipore, Billerica, Mass.). After blocking membranes with 5% milk, they were incubated with appropriate dilutions of specific primary antibodies (anti-AR (N-20), anti-SF2, anti-GFP, anti-GAPDH, anti-a-tubulin). The blots were incubated with HRP-conjugated secondary antibodies and visualized using ECL system (Thermo Fisher Scientific, Rochester, N.Y.).

PCa cell = conditions: in vitro and in vivo; cited from earlier work
SF2 = SF2 protein level; assay type: cell-based
Chain of SF2 (Q07955 whole entry): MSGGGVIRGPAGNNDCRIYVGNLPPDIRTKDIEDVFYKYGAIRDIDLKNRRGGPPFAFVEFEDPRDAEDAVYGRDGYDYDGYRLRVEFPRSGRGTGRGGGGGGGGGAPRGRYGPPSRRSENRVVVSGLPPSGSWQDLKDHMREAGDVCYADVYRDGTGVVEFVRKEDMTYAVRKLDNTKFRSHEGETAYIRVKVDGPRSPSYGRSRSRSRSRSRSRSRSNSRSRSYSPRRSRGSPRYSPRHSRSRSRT
Description: as §5

EnzR3-C4-2B cells = assay: MTT cell proliferation assay, EnzR3-C4-2B; assay type: cell-based; conditions: FIG. 2H
Description: as §1

cPARP = assay: Cell apoptosis by cPARP level; assay type: cell-based
AR mutant AR876 = molecular target: T2, AR mutant AR876 (Homo sapiens, UniProt P10275, F877L); assay: AR876 expression in PC3 cells stably transfected with AR876-cDNA; assay type: cell-based; conditions: FIG. 1G
T2 construct: expressed in transfected cells; host or cells: PC3
T2 sequence (P10275 1-920 F877L): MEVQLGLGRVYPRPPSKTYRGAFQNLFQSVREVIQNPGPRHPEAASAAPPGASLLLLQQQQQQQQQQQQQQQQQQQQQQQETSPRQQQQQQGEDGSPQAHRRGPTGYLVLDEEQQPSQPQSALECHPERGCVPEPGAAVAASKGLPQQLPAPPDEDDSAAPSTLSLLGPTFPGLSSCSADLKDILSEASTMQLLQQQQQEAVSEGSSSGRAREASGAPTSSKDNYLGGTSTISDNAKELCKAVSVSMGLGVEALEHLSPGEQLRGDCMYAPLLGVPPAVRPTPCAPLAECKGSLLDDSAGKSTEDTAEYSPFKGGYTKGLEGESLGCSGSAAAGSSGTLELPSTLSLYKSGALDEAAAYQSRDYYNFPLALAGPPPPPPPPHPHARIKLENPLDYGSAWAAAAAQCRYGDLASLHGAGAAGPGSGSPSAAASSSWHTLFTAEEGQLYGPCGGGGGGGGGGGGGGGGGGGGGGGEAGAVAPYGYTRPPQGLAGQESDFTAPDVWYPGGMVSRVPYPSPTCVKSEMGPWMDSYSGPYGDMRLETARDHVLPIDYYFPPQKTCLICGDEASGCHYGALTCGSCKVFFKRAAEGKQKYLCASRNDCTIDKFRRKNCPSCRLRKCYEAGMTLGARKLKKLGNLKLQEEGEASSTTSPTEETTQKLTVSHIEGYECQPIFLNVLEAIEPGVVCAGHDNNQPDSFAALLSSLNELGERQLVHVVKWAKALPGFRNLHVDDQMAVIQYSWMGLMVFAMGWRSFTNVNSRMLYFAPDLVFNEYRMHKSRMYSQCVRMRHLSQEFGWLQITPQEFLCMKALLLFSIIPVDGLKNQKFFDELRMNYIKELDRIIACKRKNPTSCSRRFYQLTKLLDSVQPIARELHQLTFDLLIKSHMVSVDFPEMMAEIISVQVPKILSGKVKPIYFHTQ
Description: as §5

EnzR2-CWR22Rv1 cells [3] = assay: MTT cell proliferation assay, EnzR2-CWR22Rv1; assay type: cell-based; conditions: FIG. 2E
Description: as §1

EnzR2-CWR22Rv1 cells [4] = assay: Orthotopic EnzR xenograft in castrated nude mice; assay type: in vivo
Malat1 = Malat1 mRNA expression (real-time PCR); assay type: cell-based; conditions: EnzR1-C4-2 cells, FIG. 4F
Description: as §2

[5] = system: estrogen receptor b (ERb); assay: Estrogen receptor b expression; assay type: cell-based
AR-ubiquitin complex = assay: AR-ubiquitination immunoprecipitation in 293T cells; assay type: cell-based, human; conditions: 293T cells with AR and ubiquitin-GPF, FIG. 4D
Description: Then examined was whether ubiquitination involves in ARv7 (and AR) degradation. First added were AR and ubiquitin-GPF in 293T cells, and then applied the immunoprecipitation assay to examine Cis effect on AR-ubiquitination.
as §4

AR = AR protein expression/degradation in CRPC cells (western blot); assay type: cell-based
Description: as §3, §4, §5

lncRNA RP11-473I1.9 = lncRNA RP11-473I1.9 expression (real-time PCR); assay type: cell-based; conditions: FIG. 4G
Description: as §2

AR promoter = AR promoter luciferase assay (pAR-luc) in EnzR2-CWR22Rv1 cells; assay type: cell-based; conditions: 1 ug/mL Cis, FIG. 5B
From the text: In addition to function via altering the AR-ubiquitination to decrease ARv7 (and AR) protein expression and modulating the Malat1/SF2 RNA splicing complex to decrease ARv7 mRNA biosynthesis/expression, it is interesting to see the potential 3rd molecular mechanism at transcriptional regulation to alter the AR expression for Cis to decrease ARv7 mRNA expression. […] A 3.6 kb AR promoter was then constructed into pGL3 luciferase vector (pAR-luc) and transfected pAR-luc into EnzR2-CWR22Rv1 cells for luciferase assay.

AR mRNA = AR mRNA expression (real-time PCR); assay type: cell-based; conditions: FIG. 5A
Description: as §2

[6] = system: glucocorticoid receptor (GR); assay: Glucocorticoid receptor expression; assay type: cell-based
[7] = EnzR2-CWR22Rv1 cells, after 6 hrs treatment, FIG. 4A
[8] = EnzR3-C4-2 cells, Cis at 1 ug/mL, FIG. 2J
[9] = EnzS1-C4-2 cells, Cis at 1-2 ug/mL, FIG. 2I

Molecule: COc1ccc(/C=C/C(=O)/C=C(O)/C=C/c2ccc(OC)c(OC)c2)cc1OC [ASC-J9®]
- degradation of wild type AR, ARv7 and AR mutants including AR-F876L [1]: could degrade both wild type AR and the AR variant ARv7 or AR mutants including AR-F876L

Molecule: CC(O)(CS(=O)(=O)c1ccc(F)cc1)C(=O)Nc1ccc(C#N)c(C(F)(F)F)c1 (stereo not shown) [Casodex]
- degradation of wild type AR, ARv7 and AR mutants including AR-F876L [1]: not

Molecule: CNC(=O)c1ccc(N2C(=S)N(c3ccc(C#N)c(C(F)(F)F)c3)C(=O)C2(C)C)cc1F [Enz, 4-(3-(4-Cyano-3-(trifluoromethyl)phenyl)-5,5-dimethyl-4-oxo-2-thioxoimidazolidin-1-yl)-2-fluoro-N-methylbenzamide]
- suppression of cell growth (EnzR1-C4-2 cells; 20 uM Enz alone, FIG. 2A): little effect
- Enz sensitivity (Enz-S1-C4-2 cells; Enz-S1-C4-2 cells before long-term treatment, FIG. 3A): 54%
- Enz sensitivity (Enz-S1-C4-2 cells; after 10 uM Enz alone for 2 months, FIG. 3B): 38%
- ARv7 mRNA expression (ARv7 mRNA; Enz-S1-C4-2 cells, Enz treatment, FIG. 3D): led to increase ARv7 mRNA expression
- extension of overall survival (average) [2]: 4.8 months

Molecule: CC(C)C[C@@H](C=O)NC(=O)[C@H](CC(C)C)NC(=O)[C@H](CC(C)C)NC(=O)OCc1ccccc1 [MG132] (Cbz-Leu-Leu-Leu-aldehyde)
- effect on Cis-induced ARv7 (and AR) degradation (ARv7; MG132 with Cis 6 hrs, FIG. 4B): attenuate/inhibit the effect of Cis on ARv7 (and AR) degradation

Molecule: O=C(Nc1ccc([N+](=O)[O-])cc1Cl)c1cc(Cl)ccc1O [niclosamide]
- PCa cell growth (PCa cell): suppress the PCa cell growth in vitro and in vivo

Molecule: (SP-4-2)-diamminedichloroplatinum(II) [Cis]
- ARv7 (and AR877) degradation (ARv7; CWR22Rv1 cells, Cis plus CHX compared to CHX alone, FIG. 4C): can facilitate ARv7 (and AR877) degradation
- ARv7 expression (ARv7; EnzR1-C4-2 cells, increasing Cis, FIG. 1B): diminishing ARv7 was detected upon increasing Cis
- ARv7 protein degradation (ARv7; [7]): could degrade ARv7 (and AR)
- SF2 protein expression (SF2): may decrease SF2 protein expression in a dose-dependent manner
- IC50 (cell growth) (EnzR3-C4-2B cells): 3.3 µg/mL
- IC50 (EnzR3-C4-2B cells; read-out: IC50 (cell growth)): 10.9 µM
- cell apoptosis (cPARP) (cPARP; [8]): little change in cPARP
- cell apoptosis (cPARP) (cPARP; [9]): little change in cPARP
- suppression of cell growth (EnzR1-C4-2 cells; 20 uM Enz combined with 2 ug/mL (6.6 uM) Cis, FIG. 2B): could suppress EnzR1-C4-2 cell growth
- IC50 (cell growth) (EnzR1-C4-2 cells; Cis combined with 20 uM Enz, FIG. 2C): ~5 µg/mL
- IC50 (EnzR1-C4-2 cells; Cis combined with 20 uM Enz, FIG. 2C, read-out: IC50 (cell growth)): ~16.5 µM
- AR876 expression (AR mutant AR876): can also decrease
- IC50 (cell growth) (EnzR2-CWR22Rv1 cells [3]): 5 µg/mL
- IC50 (EnzR2-CWR22Rv1 cells [3]; read-out: IC50 (cell growth)): 16.5 µM
- tumor progression (EnzR2-CWR22Rv1 cells [4]; Enz 3.5 mg/kg every other day i.p. with vs without Cis 3.5 mg/kg weekly i.v., 3 weeks): can increase/restore the Enz sensitivity to further suppress the EnzR3-C4-2B tumor progression
- tumor expression of ARv7 (and AR), Malat1 and SF2 (immunohistochemistry) (EnzR2-CWR22Rv1 cells [4]; tumor received Cis+Enz): lower expression of ARv7 (and AR), as well as Malat1 and SF2
- Enz sensitivity (Enz-S1-C4-2 cells; after 10 uM Enz plus 0.2 ug/mL (0.66 uM) Cis for 2 months, FIG. 3C): 62%
- Malat1 mRNA expression (Malat1): decreased in dose-dependent manner
- ERb expression [5]: little effect to decrease
- AR-ubiquitin complex (AR-ubiquitin complex): may increase the AR-ubiquitin complex
- AR expression (AR; EnzR1-C4-2 cells, FIG. 1B): could suppress the AR
- AR protein degradation (AR; [7]): could degrade ARv7 (and AR)
- AR degradation (AR; [8]): may degrade AR
- AR degradation (AR; [9]): could degrade AR
- AR expression (AR; EnzS1-C4-2 cells, FIG. 1A): could suppress the AR
- lncRNA RP11-473I1.9 expression (lncRNA RP11-473I1.9): little effect
- ARv7 mRNA expression (ARv7 mRNA; Enz-S1-C4-2 cells, Enz plus Cis (0.2 ug/mL), FIG. 3D): suppressed the Enz-increased ARv7 significantly
- ARv7 mRNA expression (ARv7 mRNA; EnzR1-C4-2 cells, FIG. 4E): decreased in dose-dependent manner
- AR promoter activity (pAR-luc luciferase) (AR promoter): can also decrease AR mRNA expression at transcriptional level via altering AR promoter activity
- AR mRNA (AR mRNA): could also decrease AR mRNA in a dose-dependent manner
- GR expression [6]: little effect to decrease
